# Results published in patent US11076597B2, “High stress resistant plant growth regulator and preparation method and use thereof” (SHANGHAI INSTITUTES FOR BIOLOGICAL SCIENCES, CHINESE …, priority 2015, dated 2021).
# Entries after “also recorded” stand apart in the source; their conditions may differ. Read-outs that look alike come from different tables or passages of the source.
# Experiments:
# [1] = molecular target: T1, PYL2 receptor-HAB1 complex (Arabidopsis thaliana, UniProt O80992); assay: HAB1 phosphatase activity assay (SnRK2.6 phosphorylated polypeptide as substrate); assay type: biochemical; settings: FIG. 1a-1g; 100 nM HAB1, 500 nM PYL2
# T1 construct: made in house; host or cells: E. coli BL21 (DE3)
# T1 sequence (O80992 14-188): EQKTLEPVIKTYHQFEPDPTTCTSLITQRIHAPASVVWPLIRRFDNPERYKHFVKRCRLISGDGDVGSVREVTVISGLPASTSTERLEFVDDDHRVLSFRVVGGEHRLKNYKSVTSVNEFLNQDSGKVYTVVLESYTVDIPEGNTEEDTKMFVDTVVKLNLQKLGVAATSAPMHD
# T1 sequence (Q9CAJ0 172-511 partner limits assumed): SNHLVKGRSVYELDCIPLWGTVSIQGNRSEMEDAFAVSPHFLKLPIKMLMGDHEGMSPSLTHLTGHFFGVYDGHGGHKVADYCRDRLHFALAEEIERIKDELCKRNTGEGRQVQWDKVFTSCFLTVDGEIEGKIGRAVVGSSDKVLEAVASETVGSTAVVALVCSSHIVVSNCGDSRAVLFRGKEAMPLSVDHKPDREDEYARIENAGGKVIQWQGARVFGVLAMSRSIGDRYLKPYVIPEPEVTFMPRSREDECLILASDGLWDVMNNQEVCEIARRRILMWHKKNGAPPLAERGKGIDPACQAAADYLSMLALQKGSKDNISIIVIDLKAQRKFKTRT
# Experimental: 50 mM imidazole, pH 7.2, 5 mM MgCl2, 0.1% β-mercaptoethanol, 0.5 μg·ml^−1 BSA, 100 nM HAB1 protein with a Biotin tag sequence, 500 nM PYL2 receptor protein with 6×His-SUMO dual tag sequence and the corresponding concentration of (+)-ABA/0224/0304/0706/0708/0713/0715/1028c/0428/1022B/NC0F4 were contained in the reaction system. The reaction system was incubated at room temperature for 30 minutes, followed by a further reaction for 30 minutes after adding an 11-amino acid phosphorylated polypeptide as a substrate. The phosphorylated polypeptide is amino acid 170-180 of SnRK2.6 protein kinase, wherein phosphorylated serine at position 175 (with a sequence of HSQPKpSTVGTP, purchased from Kingsley Company) was a known HAB1 dephosphorylation target site. After 30 minutes, chromogenic reagent (purchased from BioVision) was added and the absorbance at 650 nm was read on a microplate reader (Molecular Devices).
# [2] = molecular target: T2, PYL2 receptor-HAB1 protein phosphatase complex (Arabidopsis thaliana, UniProt O80992); assay: AlphaScreen assay, PYL2 receptor binding to HAB1; assay type: biochemical; settings: fraction of the EC50 of ABA; FIG. 2c, 2e-2g
# T2 construct: made in house; host or cells: E. coli BL21 (DE3)
# T2 sequence (O80992 14-188): T1 sequence (O80992 14-188)
# T2 sequence (Q9CAJ0 172-511 partner limits assumed): T1 sequence (Q9CAJ0 172-511 partner limits assumed)
# Experimental: (§1) The AlphaScreen kit (available from Perkin Elmer) was used, and the method was as follows: a 10× buffer (50 mM MOPS, pH 7.4, 50 mM NaF, 50 mM CHAPS, 0.1 mg/ml bovine serum albumin) diluted at 1:10, each of 100 nM HAB1 with Biotin tag sequence and PYR1/PYL1/PYL2/PYL7/GmPYL6/OsPYL2 protein with dual tags of 6×His and SUMO sequences, corresponding concentrations of (+)-ABA/0224/0304/0706/0708/0713/0715/0428/NC0F4, and 5 μg/ml donor beads and acceptor beads (available from Perkin Elmer) were contained in 150 μl of experimental system. After incubating for 1.5 hours at room temperature in the dark, it was placed into an Envision Plate Reader (available from Perkin Elmer) under the programmed AlphaScreen procedure for readings.
# (§2) AlphaScreen technology was used to test the ability of the compounds of the present invention to promote PYL receptor binding to PP2C protein phosphatase (HAB1).
# [3] = molecular target: T2, PYL2 receptor-HAB1 protein phosphatase complex; assay: AlphaScreen assay: promotion of PYL2 receptor binding to PP2C protein phosphatase HAB1; settings: 6×His-SUMO-tagged PYL2 (aa 14-188), Biotin-tagged HAB1 (aa 172-511), 100 nM each, pH 7.4, 1.5 h room temperature, read-out: EC50
# Excerpt: (§3) The construction method of recombinant plasmids for the Arabidopsis thaliana genes PYL1 (amino acid sequence 36-211), PYL2 (amino acid sequence 14-188) with dual tags of 6×His and SUMO sequence and the Arabidopsis thaliana gene HAB1 (amino acid sequence 172-511) with the Biotin tag sequence is described in detail in “A gate-latch-lock mechanism for hormone signaling by abscisic acid receptors” (Nature, Vol 462, 2009). The construction method of recombinant plasmids for PYR1 and PYL7 (whole gene coding sequence) and Soybean GmPYL6 and rice OsPYL2 with dual tags of 6×His and SUMO sequence is the same as that for Arabidopsis PYL2.
# (§4) The above recombinant plasmid is transformed into competent cell of E. coli BL21 (DE3) (purchased from NEB company), and inoculated into 200 ml of LB liquid medium containing Amp resistance (purchased from OXOID company) and cultured overnight at 37° C. at 200 rpm; and inoculated into 2 L of LB liquid medium containing Amp resistance at a ratio of 1:50-1:100 for an extended culture, and cultured at 37° C., 200 rpm for 3-4 hours, and at a low temperature of 16° C. until OD600 is about 0.8-1.0. Recombinant plasmids for PYR1/PYL1/PYL2/PYL7/GmPYL6/OsPYL2 with dual tags of 6×His and SUMO sequence were induced overnight with 100 μM of IPTG while HAB1 recombinant plasmid with the Biotin tag sequence was induced simultaneously with 100 μM of IPTG and 40 μM of biotin.
# (§5) After 16 hours of induction, the bacterial solution was centrifuged at 4000 rpm for 20 minutes at 4° C. in a low-speed high-capacity centrifuge, and the bacteria cells were collected. Bacteria cells were resuspended in 50 ml of extraction buffer (containing 20 mM Tris, pH 8.0, 200 mM NaCl and 10% (v/v) glycerol) for per 2 L of bacterial solution and then subjected to pressure-breaking at […] and 4° C. for 3-5 times. The broken cells were subjected to ultracentrifugation, centrifuged at 16000 rpm for 30 minutes, and this process was repeated twice. The supernatant was collected and subjected to an affinity chromatography column.
# (§6) For PYR/PYL proteins with dual tags of 6×His and SUMO sequences, 50 ml of affinity chromatography Ni column (50 ml Ni-NTA column, available from GE) was used. Firstly, the column was equilibrated with 600 ml of 10% buffer B (containing 20 mM Tris, PH 8.0, 200 mM NaCl, 500 mM imidazole and 10% glycerol), and then eluted with 200 ml of 50% buffer B and finally eluted with 100 ml of 100% buffer B. Proteins for crystal analysis were mixed with ulp1 enzyme at a molar ratio of 1000:1 for enzymatic dialysis overnight. The digested proteins were subjected to affinity chromatography on a Ni column once more. The collected solution was subjected to a HiLoad 26/60 Superdex200 gel filtration column (commercially available from GE) and eluted with an elution solution (containing 25 mM Tris, pH 8.0, 200 mM ammonium acetate, 1 mM dithiotreitol and 1 mM EDTA) to further separate and purify the protein.
# For a HAB1 protein with a Biotin tag sequence, it was subjected to a 50 ml MBP affinity column (available from GE). The column was firstly equilibrated with 600 ml of 10% buffer C (containing 20 mM Tris, pH 8.0, 200 mM NaCl, 10 mM Maltose and 10% Glycerol), and eluted with 200 ml of 50% buffer C and finally eluted with 100 ml of 100% buffer C. The collection solution was subjected to a HiLoad 26/60 Superdex200 gel filtration column and eluted with an elution solution (containing 20 mM Tris, pH 8.0, 200 mM NaCl and 10% Glycerol) to further separate and purify the protein. […]
# [4] = system: ABA-induced environmental stress-related gene (COR15a, COR47, RAB18 and RD29b); assay: Gene expression analysis (fluorescence quantitative PCR); assay type: in vivo, Arabidopsis thaliana (Col-0); settings: 10 μM, 6 hours, 10-day-aged seedlings; FIG. 10
# Experimental: The whole plant or leaves were taken, and RNA extraction was carried out by using conventional methods. After reverse transcription, the fluorescence quantitative PCR was carried out. Three biological samples were taken for each treatment which was performed twice. The ACT7 gene was used as a reference gene.
# [5] = molecular target: T3, PYR1 receptor-HAB1 protein phosphatase complex (Arabidopsis thaliana, UniProt O49686); assay: AlphaScreen assay, PYR1 receptor binding to HAB1; assay type: biochemical; settings: fraction of the EC50 of ABA; FIG. 2a, 2h
# T3 construct: made in house; host or cells: E. coli BL21 (DE3)
# T3 sequence (O49686 1-191): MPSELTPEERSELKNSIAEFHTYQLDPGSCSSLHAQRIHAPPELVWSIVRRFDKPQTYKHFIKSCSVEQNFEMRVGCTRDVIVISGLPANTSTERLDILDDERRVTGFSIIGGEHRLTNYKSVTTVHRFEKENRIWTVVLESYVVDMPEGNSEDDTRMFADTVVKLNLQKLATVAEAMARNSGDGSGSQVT
# T3 sequence (Q9CAJ0 172-511 partner limits assumed): T1 sequence (Q9CAJ0 172-511 partner limits assumed)
# Experimental: as §1, §2
# [6] = molecular target: T3, PYR1 receptor-HAB1 protein phosphatase complex; assay: AlphaScreen assay: promotion of PYR1 receptor binding to PP2C protein phosphatase HAB1; settings: FIG. 2h; 6×His-SUMO-tagged PYR1 (whole coding sequence), Biotin-tagged HAB1 (aa 172-511), 100 nM each; pH 7.4; 1.5 h room temperature; read-out: EC50
# Excerpt: as §3, §4, §5, §6
# For a HAB1 protein with a Biotin tag sequence, it was subjected to a 50 ml MBP affinity column (available from GE). The column was firstly equilibrated with 600 ml of 10% buffer C (containing 20 mM Tris, pH 8.0, 200 mM NaCl, 10 mM Maltose and 10% Glycerol), and eluted with 200 ml of 50% buffer C and finally eluted with 100 ml of 100% buffer C. […]
Structure (SMILES),inhibition of HAB1 protein phosphatase activity by promoting binding between PYL2 receptor and HAB1 [1],EC50 value with PYL2 receptor-HAB1 complex as fraction of that of ABA [2],EC50 ([3]; FIG. 2e),EC50 ([3]; FIG. 2g),"expression level of COR15a, COR47, RAB18 and RD29b [4]",EC50 value with PYR1 receptor-HAB1 complex as fraction of that of ABA [5],EC50 [6]
Cc1c(F)c(F)c(CS(=O)(=O)Nc2ccc3c(c2)C(C)OC(=O)N3C(C)C)c(F)c1F (stereo not drawn) [Compound 0708],inhibiting the activity of protein phosphatase HAB1; also recorded: inhibiting the dephosphorylation effect of HAB1 on SnRK2.6 phosphorylated polypeptide,⅕-⅛,136 nM,–,–,–,–
Cc1c(F)c(F)c(CS(=O)(=O)Nc2ccc3c(c2)C(C)OC(=O)N3CC(C)C)c(F)c1F (stereo not drawn) [Compound 0713],inhibiting the activity of protein phosphatase HAB1; also recorded: inhibiting the dephosphorylation effect of HAB1 on SnRK2.6 phosphorylated polypeptide,⅕-⅛,181 nM,–,–,–,–
CCCn1c(=O)ccc2cc(NS(=O)(=O)Cc3ccc(C)cc3)ccc21 [Compound 1022B],inhibiting the activity of protein phosphatase HAB1; also recorded: inhibiting the dephosphorylation effect of HAB1 on SnRK2.6 phosphorylated polypeptide,one order of magnitude lower than that of ABA,–,180 nM,all higher than those of ABA; also recorded: significantly increased,–,–
CCCN1C(=O)NC(C)c2cc(NS(=O)(=O)Cc3c(F)c(F)c(C)c(F)c3F)ccc21 (stereo not drawn) [Compound 1028c],inhibiting the activity of protein phosphatase HAB1; also recorded: inhibiting the dephosphorylation effect of HAB1 on SnRK2.6 phosphorylated polypeptide,–,–,–,–,–,–
CCCN1C(=O)NCc2cc(NS(=O)(=O)Cc3c(F)c(F)c(C)c(F)c3F)ccc21 [Compound NC0F4],inhibiting the activity of protein phosphatase HAB1; also recorded: inhibiting the dephosphorylation effect of HAB1 on SnRK2.6 phosphorylated polypeptide,better PYL2 receptor affinity over ABA,–,–,–,about 1/11,373 nM
